Results published in the NIST ThermoML archive (doi:10.1021/je060271a).
± gives the expanded uncertainty stated by the source.

Settings: 303.16 K, Liquid, Vibrating tube method

CCCC(=O)OCC(COC(=O)CCC)(COC(=O)CCC)COC(=O)CCC [pentaerythritol tetrabutyrate]
Settings | mass density [kg/m3]
28457 kPa | 1059.5 ± 1.3
28504 kPa | 1059.6 ± 1.3
28542 kPa | 1059.7 ± 1.3
28589 kPa | 1059.8 ± 1.3
28636 kPa | 1059.7 ± 1.3
28675 kPa | 1059.8 ± 1.3
28723 kPa | 1059.9 ± 1.3
28762 kPa | 1059.7 ± 1.3
28808 kPa | 1059.8 ± 1.3
28856 kPa | 1059.8 ± 1.3
28896 kPa | 1060 ± 1.3
28944 kPa | 1059.8 ± 1.3
28991 kPa | 1060 ± 1.3
29031 kPa | 1060 ± 1.3
29080 kPa | 1060 ± 1.3
29121 kPa | 1060 ± 1.3
29170 kPa | 1060.1 ± 1.3
29212 kPa | 1060 ± 1.3
29261 kPa | 1060.1 ± 1.3
29301 kPa | 1060 ± 1.3
29349 kPa | 1060 ± 1.3
29397 kPa | 1060.1 ± 1.3
29435 kPa | 1060 ± 1.3
29481 kPa | 1060.1 ± 1.3
29515 kPa | 1060.2 ± 1.3
29583 kPa | 1060.3 ± 1.3
29644 kPa | 1060.2 ± 1.3
29675 kPa | 1060.3 ± 1.3
29772 kPa | 1060.4 ± 1.3
29848 kPa | 1060.4 ± 1.3
29885 kPa | 1060.5 ± 1.3
29968 kPa | 1060.4 ± 1.3
30045 kPa | 1060.6 ± 1.3
30080 kPa | 1060.5 ± 1.3
30163 kPa | 1060.5 ± 1.3
30239 kPa | 1060.6 ± 1.3
30274 kPa | 1060.8 ± 1.3
30309 kPa | 1060.5 ± 1.3
30339 kPa | 1060.8 ± 1.3
30375 kPa | 1060.8 ± 1.3
30405 kPa | 1060.6 ± 1.3
30441 kPa | 1060.8 ± 1.3
30478 kPa | 1060.7 ± 1.3
30509 kPa | 1060.8 ± 1.3
30539 kPa | 1060.8 ± 1.3
30576 kPa | 1060.9 ± 1.3
30606 kPa | 1060.9 ± 1.3
30642 kPa | 1060.7 ± 1.3
30679 kPa | 1060.9 ± 1.3
30710 kPa | 1060.8 ± 1.3
30746 kPa | 1060.9 ± 1.3
30777 kPa | 1061.1 ± 1.3
30814 kPa | 1061 ± 1.3
30850 kPa | 1060.9 ± 1.3
30882 kPa | 1061 ± 1.3
30919 kPa | 1061 ± 1.3
30951 kPa | 1061 ± 1.3
30989 kPa | 1061.1 ± 1.3
31020 kPa | 1061 ± 1.3
31057 kPa | 1061.1 ± 1.3
31094 kPa | 1061.3 ± 1.3
31126 kPa | 1061.1 ± 1.3
31164 kPa | 1061.1 ± 1.3
31196 kPa | 1061.1 ± 1.3
31233 kPa | 1061.1 ± 1.3
31271 kPa | 1061.2 ± 1.3
31303 kPa | 1061.3 ± 1.3
31342 kPa | 1061.2 ± 1.3
31375 kPa | 1061.3 ± 1.3
31414 kPa | 1061.3 ± 1.3
31446 kPa | 1061.3 ± 1.3
31485 kPa | 1061.2 ± 1.3
31517 kPa | 1061.2 ± 1.3
31555 kPa | 1061.3 ± 1.3
31595 kPa | 1061.4 ± 1.3
31627 kPa | 1061.4 ± 1.3
31667 kPa | 1061.4 ± 1.3
31700 kPa | 1061.5 ± 1.3
31738 kPa | 1061.4 ± 1.3
31778 kPa | 1061.5 ± 1.3
31811 kPa | 1061.5 ± 1.3
31851 kPa | 1061.5 ± 1.3
31883 kPa | 1061.5 ± 1.3
31922 kPa | 1061.6 ± 1.3
31960 kPa | 1061.6 ± 1.3
31999 kPa | 1061.6 ± 1.3
32038 kPa | 1061.6 ± 1.3
32076 kPa | 1061.5 ± 1.3
32115 kPa | 1061.7 ± 1.3
32148 kPa | 1061.9 ± 1.3
32187 kPa | 1061.8 ± 1.3
32227 kPa | 1061.7 ± 1.3
32266 kPa | 1061.9 ± 1.3
32299 kPa | 1061.7 ± 1.3
32339 kPa | 1061.8 ± 1.3
32380 kPa | 1061.8 ± 1.3
32419 kPa | 1061.8 ± 1.3
32452 kPa | 1061.8 ± 1.3
32491 kPa | 1062 ± 1.3
32532 kPa | 1061.9 ± 1.3
32572 kPa | 1061.8 ± 1.3
32612 kPa | 1061.9 ± 1.3
32652 kPa | 1062 ± 1.3
32693 kPa | 1061.8 ± 1.3
32727 kPa | 1062 ± 1.3
32768 kPa | 1062 ± 1.3
32809 kPa | 1062.1 ± 1.3
32850 kPa | 1062 ± 1.3
32891 kPa | 1062.2 ± 1.3
33091 kPa | 1062.2 ± 1.3
33133 kPa | 1062.2 ± 1.3
33168 kPa | 1062.2 ± 1.3
33210 kPa | 1062.2 ± 1.3
33253 kPa | 1062.4 ± 1.3
33296 kPa | 1062.3 ± 1.3
33340 kPa | 1062.3 ± 1.3
33377 kPa | 1062.2 ± 1.3
33421 kPa | 1062.4 ± 1.3
33456 kPa | 1062.4 ± 1.3
33499 kPa | 1062.4 ± 1.3
33542 kPa | 1062.4 ± 1.3
33586 kPa | 1062.6 ± 1.3
33622 kPa | 1062.5 ± 1.3
33666 kPa | 1062.6 ± 1.3
33710 kPa | 1062.5 ± 1.3
33753 kPa | 1062.5 ± 1.3
33797 kPa | 1062.6 ± 1.3
33834 kPa | 1062.6 ± 1.3
33881 kPa | 1062.7 ± 1.3
33925 kPa | 1062.7 ± 1.3
33963 kPa | 1062.8 ± 1.3
34008 kPa | 1062.7 ± 1.3
34052 kPa | 1062.7 ± 1.3
34098 kPa | 1062.8 ± 1.3
34136 kPa | 1062.8 ± 1.3
34182 kPa | 1062.8 ± 1.3
34228 kPa | 1062.7 ± 1.3
34275 kPa | 1062.9 ± 1.3
34322 kPa | 1062.9 ± 1.3
34370 kPa | 1063 ± 1.3
34411 kPa | 1063.1 ± 1.3
34462 kPa | 1063 ± 1.3
34514 kPa | 1063.1 ± 1.3
34558 kPa | 1062.9 ± 1.3
34613 kPa | 1063 ± 1.3
34844 kPa | 1063.3 ± 1.3
